US10144756B2, “Stable solid forms of regadenoson” (Euticals S.p.A., priority 2013, dated 2018)
Read-outs that look alike come from different tables or passages of the source. Each block holds one compound with its values, some of them ahead of it.

Experiments:
[1] = not given; remark: listed apart in the source
[2] = HPLC stability of solid forms stored at 90% RH and 20-25° C.; settings: for HPLC stability data (chromatographic purity): 90% RH and 20-25° C.
[3] = HPLC stability of solid forms stored at 80° C. in inert atmosphere; settings: for HPLC stability data (chromatographic purity): 80° C. in inert atmosphere
[4] = Thermal treatment of polymorphic form A at 190-200° C. (prior-art route to amorphous form); assay type: physicochemical; settings: thermal treatment at 190-200° C.
Protocol: In U.S. Pat. No. 8,106,183 the method of preparation of an amorphous form of Regadenoson is described by heating polymorphic form A at 200° C.; this solid state, differently by polymorphic forms A-C, was not described by the authors by an X-ray diffraction spectrum in order to identify possible characteristic halo-peaks (broad peaks). This amorphous form was prepared according to U.S. Pat. No. 8,106,183 by heating the polymorphic form A over the melting point value of this substance (that for polymorphic form A is 194.5° C.). This method is not industrially applicable and leads to the formation of several side products. […] To the best of our knowledge, this is the only described method for the preparation of amorphous Regadenoson.

[5] = U.S. Pat. No. 8,106,183 / WO2012149196, cited from earlier work

SMILES: CNC(=O)c1cnn(-c2nc(N)c3ncn([C@@H]4O[C@H](CO)[C@@H](O)[C@H]4O)c3n2)c1 [Form E]
HPLC stability data (chromatographic purity) (0 h): 99.6%
HPLC stability data (chromatographic purity) (96 h): 99.7%
HPLC stability data (chromatographic purity) ([1]; 0 h): 99.6%
HPLC stability data (chromatographic purity) ([1]; 72 h): 99.4%
HPLC stability data (chromatographic purity) ([1]; 96 h): 99.6%

SMILES: CNC(=O)c1cnn(-c2nc(N)c3ncn([C@@H]4O[C@H](CO)[C@@H](O)[C@H]4O)c3n2)c1 [Form A, (1-{9-[(4S,2R,3R,5R)-3,4-dihydroxy-5-(hydroxymethyl)oxolan-2-yl]-6-aminopurin-2yl}pyrazol-4-yl)-N-methylcarboxamide, reference compound]
HPLC stability data (chromatographic purity) ([2]; time 0 hours): 99.5%
HPLC stability data (chromatographic purity) ([2]; time 96 hours): 99.5%
HPLC stability data (chromatographic purity) ([3]; time 0 hours): 99.5%
HPLC stability data (chromatographic purity) ([3]; time 72 hours): 99.5%
HPLC stability data (chromatographic purity) ([3]; time 96 hours): 99.5%
decrease of chromatographic purity [4]: about 30%
change in the color of the sample ([4]; form A is white before): the color changes to brown
stability of the solid form as described in the literature ([5]; listed as Regadenoson Form A): more stable than polymorphs B and C

SMILES: CNC(=O)c1cnn(-c2nc(N)c3ncn([C@@H]4O[C@H](CO)[C@@H](O)[C@H]4O)c3n2)c1 [Polymorph C]
stability of the solid form as described in the literature [5]: unstable at high temperatures

SMILES: CNC(=O)c1cnn(-c2nc(N)c3ncn([C@@H]4O[C@H](CO)[C@@H](O)[C@H]4O)c3n2)c1 [Form F, (1-{9-[(4S,2R,3R,5R)-3,4-dihydroxy-5-(hydroxymethyl)oxolan-2-yl]-6-aminopurin-2yl}pyrazol-4-yl)-N-methylcarboxamide]
HPLC stability data (chromatographic purity) (0 h): 99.8%
HPLC stability data (chromatographic purity) (96 h): 99.8%
HPLC stability data (chromatographic purity) ([1]; 0 h): 99.8%
HPLC stability data (chromatographic purity) ([1]; 72 h): 99.7%
HPLC stability data (chromatographic purity) ([1]; 96 h): 99.7%

SMILES: CNC(=O)c1cnn(-c2nc(N)c3ncn([C@@H]4O[C@H](CO)[C@@H](O)[C@H]4O)c3n2)c1 [Form D]
stability of the solid form as described in the literature [5]: stable under inert conditions

Second part, led by results:

HPLC stability data (chromatographic purity) ([2]; time 0 hours): 99.7%
HPLC stability data (chromatographic purity) ([2]; time 96 hours): 99.7%
HPLC stability data (chromatographic purity) ([3]; time 0 hours): 99.7%
HPLC stability data (chromatographic purity) ([3]; time 72 hours): 99.7%
HPLC stability data (chromatographic purity) ([3]; time 96 hours): 99.7%
stability to heating ([3]; 80° C., protected atmosphere / dry conditions, up to 96 hours): stable to the heating
SMILES: CNC(=O)c1cnn(-c2nc(N)c3ncn([C@@H]4O[C@H](CO)[C@@H](O)[C@H]4O)c3n2)c1 [Halo Amorphous, (1-{9-[(4S,2R,3R,5R)-3,4-dihydroxy-5-(hydroxymethyl)oxolan-2-yl]-6-aminopurin-2yl}pyrazol-4-yl)-N-methylcarboxamide]
formation of degradation products ([2]; exposed to moisture, 25° C./90% RH up to 96 hours): does not give origin to degradation products
formation of degradation products ([3]; dry conditions, 80° C. up to 96 hours): does not give origin to degradation products

HPLC stability data (chromatographic purity) (0 h): 99.8%
HPLC stability data (chromatographic purity) (96 h): 99.8%
HPLC stability data (chromatographic purity) ([1]; 0 h): 99.8%
HPLC stability data (chromatographic purity) ([1]; 72 h): 99.8%
HPLC stability data (chromatographic purity) ([1]; 96 h): 99.8%
SMILES: CNC(=O)c1cnn(-c2nc(N)c3ncn([C@@H]4O[C@H](CO)[C@@H](O)[C@H]4O)c3n2)c1 [Form G, (1-{9-[(4S,2R,3R,5R)-3,4-dihydroxy-5-(hydroxymethyl)oxolan-2-yl]-6-aminopurin-2yl}pyrazol-4-yl)-N-methylcarboxamide]
